From patent US4839376A, “Pyrazoline derivatives for treating cerebrovascular diseases” (Mitsui Toatsu Chemicals, Inc., priority 1987, dated 1989)
Read-outs that look alike come from different tables or passages of the source.

How the values were obtained:
[1] = cited from earlier work; for protection of the brain from cerebral ischemia: literature
[2] = tested on: ischemic cerebral edemas of rats caused by occlusion of the middle cerebral artery; assay: Action upon ischemic cerebral edemas of rats caused by occlusion of the middle cerebral artery; type: in vivo, Wistar rats; conditions: Rattus norvegicus, ip, 24 h, read-out: Cerebral Edema Inhibition Rate; for inhibition in vivo at 30 mg/kg: dose 30 mg/Kg i.p.; for inhibition in vivo at 25 mg/kg: dose 25 mg/Kg i.p.
Method: (Action upon ischemic cerebral edemas of rats caused by occlusion of the middle cerebral artery)
The compound being tested was suspended in 0.5% aqueous solution of CMC, and this suspension was intraperitoneally injected to each rat immediately after occlusion, and 8 hours and 16 hours later (a total of three times). Twenty-four hours after occlusion, each of the treated rats was sacrificed, the brain was excised, and the water content of hemispheres were determined by weighing the hemispheres before and after drying at 110° C. to the constant weight. On the other hand, the rats of the control group were subjected to arterial occlusion in the same way as above, followed by intraperitoneal injection of physiological saline three times a day. The cerebral edema inhibition rate of each compound was calculated from the following equation: [formula] where CL and CR represent the water contents of left and right hemispheres of the control group and SL and SR the water contents of left and right hemispheres of the treated group.

[3] = Acute toxicity (LD50) by intraperitoneal injection to mice; conditions: mouse, in vivo, ip, mortality 48 hours after injection
Method: Acute toxicity (LD50) was determined by intraperitoneal injection of a compound being tested to mice and by calculation from the mortality 48 hours after injection by the usual method.

[4] = tested on: cerebral infarction of rats caused by occlusion of the middle cerebral artery; assay: Action against cerebral infarction of rats caused by occlusion of the middle cerebral artery (TTC stain, planimeter); type: in vivo; conditions: i.p. three times, 24 h after occlusion
Method: (Action against cerebral infarction of rats caused by occlusion of the middle cerebral artery)
Cerebral infarction of rats caused by occlusion of the middle cerebral artery was measured by the method of Tamura et al. (Japan Clinics, 43, 185, 1985). The middle cerebral artery of rats was artificially occluded, the compound being tested was suspended in 0.5% aqueous solution of CMC, and this suspension was intraperitoneally injected to each rat immediately after occlusion, and 8 hours and 16 hours later (a total of three times). Twenty-four hours after occlusion, each of the treated rats was sacrificed, and the brain was excised, stained with TTC and cut into equal six parts from top to bottom. The cross-sections were photographed, and the ratio of infarcted areas to the whole brain was measured by means of a planimeter.

[5] = three times (immediately, 8 and 16 h after occlusion)
[6] = control group 11.58 ± 0.81, **1% significant difference
[7] = dose 50 mg/Kg i.p., three times (immediately, 8 and 16 h after occlusion)
[8] = control group 11.58 ± 0.81, *5% significant difference

SMILES | inhibition in vivo at 30 mg/kg [2, 5] [%] | LD50 at 48 h [3] [mg/kg] | inhibition in vivo at 25 mg/kg [2, 5] [%] | further results
CCN(CC)Cc1nccn1-c1ccc([N+](=O)[O-])cc1C(=O)c1ccccc1Cl [Nizofenone] | – | – | – | action to inhibit cerebral edemas ([1]; Japan Clinics, 43, 185, 1985): no action to inhibit cerebral edemas; consciousness troubles ([1]; Japan Clinics, 43, 185, 1985): helps alleviate consciousness troubles; protection of the brain from cerebral ischemia [1]: useful to protect the brain from cerebral ischemia
O=C(c1ccc(C(F)(F)F)cc1)N1N=CCC1c1ccccc1 (stereo not drawn) [Compound 60, 1-(4-Trifluoromethylbenzoyl)-5-phenyl-2-pyrazoline] | 20.9 | 810 | – | –
O=C(c1cccnc1)N1N=CCC1c1ccccc1 (stereo not drawn) [Compound 1, 1-(3-Pyridylcarbonyl)-5-phenyl-2-pyrazoline] | 36 | 600 | – | Rate of Infarcted Area [4, 6]: 5.03 ± 0.49%
C1=NNC(c2cccnc2)C1 (stereo not drawn) [Compound 53, 5-(3-Pyridyl)-2-pyrazoline] | – | 600 | 16.7 | –
Cc1ccccc1C1CC=NN1C(=O)c1cccnc1 (stereo not drawn) [Compound 10, 1-(3-Pyridylcarbonyl)-5-(2-methylphenyl)-2-pyrazoline] | – | 610 | 31.3 | –
O=C([O-])N1N=CCC1c1ccccc1.[Na+] (stereo not drawn) | – | 710 | – | inhibition in vivo at 50 mg/kg [2]: 18.6%
C1=NNC(c2ccncc2)C1 (stereo not drawn) [Compound 52, 5-(4-Pyridyl)-2-pyrazoline] | – | 540 | 21.8 | –
CC(C)C1CC=NN1C(=O)c1cccnc1 (stereo not drawn) [Compound 22, 1-(3-Pyridylcarbonyl)-5-isopropyl-2-pyrazoline] | – | 830 | – | inhibition in vivo at 50 mg/kg [2, 7]: 27.2%
COc1ccccc1C1CC=NN1C(=O)c1cccnc1 (stereo not drawn) [Compound 4, 1-(3-Pyridylcarbonyl)-5-(2-methoxyphenyl)-2-pyrazoline] | 28.3 | 610 | – | –
O=C(c1ccccc1)N1N=CCC1c1ccccc1 (stereo not drawn) [Compound 59, 1-Benzoyl-5-phenyl-2-pyrazoline] | 21.7 | 600 | – | Rate of Infarcted Area [4, 8]: 7.69 ± 0.67%
COc1ccccc1C1CC=NN1 (stereo not drawn) [Compound 40, 5-(2-Methoxylphenyl)-2-pyrazoline] | – | 560 | 25.7 | –
CCOC(=O)N1N=CCC1c1ccccc1 (stereo not drawn) [Compound 25, 1-Ethoxycarbonyl-5-phenyl-2-pyrazoline] | – | 830 | – | inhibition in vivo at 50 mg/kg [2, 7]: 27.2%
O=C(c1ccccn1)N1N=CCC1c1ccccc1 (stereo not drawn) [Compound 3, 1-(2-Pyridylcarbonyl)-5-phenyl-2-pyrazoline] | 15.7 | 560 | – | –
CCOC(=O)N1N=CCC1C (stereo not drawn) [Compound 28, 1-Ethoxycarbonyl-5-methyl-2-pyrazoline] | – | – | – | Rate of Infarcted Area [4, 6]: 5.79 ± 0.43%
O=C(c1cccs1)N1N=CCC1c1ccccc1 (stereo not drawn) [Compound 64, 1-(2-Thienylcarbonyl)-5-phenyl-2-pyrazoline] | 28.5 | 830 | – | –
CCCC(C)C1(CC)C(=O)NC(=O)NC1=O (stereo not drawn) [pentobarbital] | – | – | – | protection of the brain from cerebral ischemia [1]: protect the brain from cerebral ischemia
O=C(c1cnccn1)N1N=CCC1c1ccccc1 (stereo not drawn) [Compound 8, 1-Pyrazylcarbonyl-5-phenyl-2-pyrazoline] | – | 710 | 33 | –
Cc1ccccc1C1CC=NN1 (stereo not drawn) [Compound 37, 5-(2-Methylphenyl)-2-pyrazoline] | – | 680 | 30.4 | –
CCC1CC=NN1C(=O)OC (stereo not drawn) [Compound 30, 1-Methoxycarbonyl-5-ethyl-2-pyrazoline] | – | 740 | 29.1 | –

SMILES | inhibition in vivo at 30 mg/kg [2, 5] [%] | LD50 at 48 h [3] [mg/kg] | inhibition in vivo at 25 mg/kg [2, 5] [%] | further results
Clc1ccccc1C1CC=NN1 (stereo not drawn) [Compound 34, 5-(2-Chlorophenyl)-2-pyrazoline] | – | 600 | 29.1 | Rate of Infarcted Area [4, 8]: 8.56 ± 0.71%
O=C(c1cccnc1)N1N=CCC1c1ccc(Cl)cc1 (stereo not drawn) [Compound 11, 1-(3-Pyridylcarbonyl)-5-(4-chlorophenyl)-2-pyrazoline] | – | 710 | 29.3 | –
Fc1cccc(C2CC=NN2)c1 (stereo not drawn) [Compound 42, 5-(3-Fluorophenyl)-2-pyrazoline] | – | 710 | 23.9 | –
CCC1(c2ccccc2)C(=O)NC(=O)N(C)C1=O (stereo not drawn) [mefobarbital] | – | – | – | protection of the brain from cerebral ischemia [1]: protect the brain from cerebral ischemia
O=C(C1CCCCC1)N1N=CCC1c1ccccc1 (stereo not drawn) [Compound 62, 1-Cyclohexylcarbonyl-5-phenyl-2-pyrazoline] | 15.3 | 630 | – | –
C1=NNC(c2ccccc2)C1 (stereo not drawn) [Compound 31, 5-Phenyl-2-pyrazoline] | – | 540 | 32 | Rate of Infarcted Area [4, 8]: 7.93 ± 0.56%
CC(=O)N1N=CCC1c1ccccc1 (stereo not drawn) [Compound 56, -Acetyl-5-phenyl-2-pyrazoline] | – | 1100 | 15.9 | –
S=C(Nc1cccnc1)N1N=CCC1c1ccccc1 (stereo not drawn) [Compound 66, 1-[N-(3-pyridyl)thiocarbamoyl]-5-phenyl-2-pyrazoline] | – | 560 | 18.9 | –
O=C(Nc1cccnc1)N1N=CCC1c1ccccc1 (stereo not drawn) [Compound 65, 1-[N-(3-pyridyl)carbamoyl]-5-phenyl-2-pyrazoline] | – | 630 | 27.1 | –
COc1cccc(C2CC=NN2C(=O)c2cccnc2)c1 (stereo not drawn) [Compound 5, 1-(3-Pyridylcarbonyl)-5-(3-methoxyphenyl)-2-pyrazoline] | 20.7 | 630 | – | –
CC1CC=NN1C(=O)c1cccnc1 (stereo not drawn) [Compound 17, 1-(3-Pyridylcarbonyl)-5-methyl-2-pyrazoline] | – | 850 | 34 | Rate of Infarcted Area [4, 8]: 8.01 ± 0.54%
O=C(c1ccco1)N1N=CCC1c1ccccc1 (stereo not drawn) [Compound 63, 1-(2-Furylcarbonyl)-5-phenyl-2-pyrazoline] | 26.1 | 710 | – | –
O=C(c1ccncc1)N1N=CCC1c1ccccc1 (stereo not drawn) [Compound 2, 1-(4-Pyridylcarbonyl)-5-phenyl-2-pyrazoline] | 30.5 | 630 | – | –
FC(F)(F)c1cccc(C2CC=NN2)c1 (stereo not drawn) [Compound 45, 5-(3-Trifluoromethylphenyl)-2-pyrazoline] | – | 630 | 30.4 | –
O=C(c1cccnc1)N1N=CCC1c1ccco1 (stereo not drawn) [Compound 7, 1-(3-Pyridylcarbonyl)-5-(2-furyl)-2-pyrazoline] | 31.2 | 1100 | – | Rate of Infarcted Area [4, 8]: 6.96 ± 0.79%
O=C(CN1N=CCC1c1ccccc1)c1ccccc1 (stereo not drawn) [Compound 61, 1-Benzoylmethyl-5-phenyl-2-pyrazoline] | 16.7 | 540 | – | –
O=C(c1cccnc1)N1N=CCC1c1ccccc1F (stereo not drawn) [Compound 9, 1-(3-Pyridylcarbonyl)-5-(2-fluorophenyl)-2-pyrazoline] | – | 830 | 29.1 | –
COc1ccc(C2CC=NN2C(=O)c2cccnc2)cc1 (stereo not drawn) [Compound 6, 1-(3-Pyridylcarbonyl)-5-(4-methoxyphenyl)-2-pyrazoline] | 19.3 | 830 | – | –
